Read-outs that look alike come from different tables or passages of the source. Marks after values point to notes of the source that are not given here.
Columns and labels:
[1] = test system: Herpes zoster simplex viruses type I (HSV-I); test: Impact on virus-induced cytopathic effect in Vero cells (MTT): HSV-I; format: cell-based; details: HSV-I 100TCID50, Vero, 72 h; drug g/L as Table 1-2
[2] = test system: influenza virus; format: in vivo, Kunming mice; details: 13.0 mg/kg/d i.g. 5 days
[3] = test system: sweat gland epithelial cells of rat paws; test: Sweat secretion of rat paws (histomorphological observation method); format: in vivo, Wistar rats; details: dose not given; i.g., 1 h after administration
Excerpt: This test is based on a mechanism that when a rat is in an excited state, in addition to the increase of sweat secretion of sweat glands, the morphology of sweat gland epithelial cells changes accordingly. Under an optical microscope, it can be seen that the sweat gland epithelial cell vacuoles increase in number and expand. Under an electron microscope, such expanded vacuoles appear to be mitochondria in the sweat gland epithelial cell swelling, breakage and fusion and expansion of secretory vesicle. Therefore, through histomorphological observation of sweat gland epithelial tissue of a rat paw, secretory activities of the sweat gland can be known.
300 Wistar rats with equal male and female number, weighing 120˜160 g were used. These rats were randomly divided into 30 groups by weight and gender: control groups (0.5% of methyl cellulose), phillygeninin groups, phillyrin groups, low, medium and high dose groups (2.5, 5, 10 mg/kg) of phillyrin/phillygeninin compositions A and B separately, and positive drug pilocarpine groups (35 mg/kg). Each group has 10 rats, the test is repeated 3 times for each group. Pilocarpine solution was administered by subcutaneous injection, the remaining groups were subjected to intragastric administration. After administration of the 0.5% of methyl cellulose in the control group for one hour, after administration of the pilocarpine in the positive drug group for 30 min, and after administration of the phillyrin, the phillygeninin and the phillyrin/phillygeninin composition for one hour, the right hind limb was instantly cut off at the ankle joint to immediately take down the footpad of the right hind limb and placed into 10% of formaldehyde solution. The footpads were fixed, dehydrated, embedded, sliced and stained with HE by using conventional methods. Changes in sweat gland epithelial cells of the rat paws from each group were observed under an optical microscope, to mainly observe the percentage of vacuolization. The differences among the various groups was performed through X^2 test for statistical analysis. The above test was repeated 3 times. Percentage of vacuolization=(the number of vacuolized sweat glands)/(the number of sweat glands observed)×100%.

[4] = test system: influenza virus; test: Impact on virus-induced cytopathic effect in Vero cells (MTT): influenza virus; format: cell-based
[5] = test system: respiratory syncytial virus (RSV); test: Impact on virus-induced cytopathic effect in Vero cells (MTT): RSV; format: cell-based; details: RSV 100TCID50, Vero, 72 h; drug g/L as Table 1-2
[6] = test system: adenovirus (ADV); test: Impact on virus-induced cytopathic effect in Vero cells (MTT): ADV; format: cell-based; details: ADV 100TCID50, Vero, 72 h; drug g/L as Table 1-2
[7] = test system: parainfluenza virus; format: in vivo, Kunming mice; details: 13.0 mg/kg/d i.g. 5 days
[8] = test system: parainfluenza virus; format: in vivo, Kunming mice; details: 13.0 mg/kg/d i.g. 5 days; remark: listed apart in the source
[9] = test system: influenza virus; format: in vivo, Kunming mice; details: 13.0 mg/kg/d i.g. 5 days; remark: listed apart in the source
[10] = test system: Coxsackie virus B3 (CVB3); test: Impact on virus-induced cytopathic effect in Vero cells (MTT): CVB3; format: cell-based; details: CVB3 100TCID50, Vero, 72 h; drug g/L as Table 1-2
[11] = test system: rat paw swelling induced by carrageenin; test: Rat paw swelling induced by carrageenin; format: in vivo, Wistar rats; details: 10.0 mg/kg
Procedure: Each group has 10 rats. Rats in each group were all administered by […] through the sublingual vein. Normal volume of the right hind paw of each rat in each group was measured in capillary magnification measurement method. In order to avoid errors, the measurement should be carried out in a fixed position and operated by the same person before and after administration. A mean of the two measurement values was taken as the normal volume of the right hind paw of a rat before administration. […] The difference between the groups was compared by inter-group t test processing through the difference percentage (swelling ratio) of the paw volume before and after the induced rat inflammation. [formula] Results

[12] = test system: parainfluenza virus; test: Impact on virus-induced cytopathic effect in Vero cells (MTT): parainfluenza virus; format: cell-based; details: parainfluenza virus 100TCID50, Vero, 72 h; drug g/L as Table 1-2
[13] = test system: rabbit fever induced by typhoid and paratyphoid vaccine; test: Rabbit fever induced by typhoid and paratyphoid vaccine; format: in vivo, Japanese big-ear white rabbits; details: 5.2 mg/kg i.g.
Procedure: Male Japanese big-ear white rabbits with a weight 1.5˜2.0 kg were used. Before the test, WSC-411P portable digital thermometer was used to measure the normal rectal temperature twice (with certain interval for each time), and the average value was taken as the normal body temperature of rabbits. […] Each group has 6 rabbits, and the test was repeated 3 times for each group. Rabbits were fixed into a fixator. The blank control group was intravenously injected with normal saline of 1 ml/kg via the ear margin; The model control group and each drug group were intravenously injected with typhoid and paratyphoid vaccines of 0.8 ml/kg via the ear margin. After the body temperatures of the rabbits increased by 1° C. or more (requiring about 1˜1.5 h, and this test was limited to 1 h), the blank control group and the model group were administered intragastrically with 0.5% carboxymethycellulose of 1 ml/kg, and the drug groups were administered intragastrically with phillyrin/phillygeninin compositions and paracetamol respectively. The rectal temperature was measured after administration for 30, 60, 90, 120, 180 and 240 min to observe the changes in the body temperature, and difference between the groups was compared by inter-group t test processing through antipyretic percentage.

[14] = 15 min after inflammation induction
[15] = 30 min after inflammation induction
[16] = 60 min after inflammation induction
[17] = 120 min after inflammation induction
[18] = 180 min after inflammation induction
[19] = 240 min after inflammation induction
[20] = 300 min after inflammation induction
[21] = 360 min after inflammation induction

Row | SMILES | antiviral effective rate (ER %) [1] | Hemagglutination titer (InX) [2] | Inhibition rate (%) of hemagglutination titer [2] [%] | Number of sweat glands of vacuole [3] | percentage of vacuolization (%) [3] | antiviral effective rate (ER %) [5] | antiviral effective rate (ER %) [6] | Hemagglutination titer (InX) [7] | Inhibition rate (%) of hemagglutination titer [7] [%] | Lung index [8] | Lung index inhibition rate [8] | Lung index [9] | Lung index inhibition rate [9] | antiviral effective rate (ER %) [10] | Swelling percentage (%) [11, 14] [%] | Swelling percentage (%) [11, 15] [%] | Swelling percentage (%) [11, 16] [%] | Swelling percentage (%) [11, 17] [%] | Swelling percentage (%) [11, 18] [%] | Swelling percentage (%) [11, 19] [%] | further results
1 | COc1cc([C@H]2OC[C@H]3[C@@H]2CO[C@H]3c2ccc(OC)c(OC)c2)ccc1O [Phillygeninin, phillygeninin] | 84.30** % | 22.61 ± 1.059 | 30.22 | 79 | 20.26** % | 80.88** % | 50.61% | 23.79 | 28.15 | 1.357 ± 0.050 | 14.69 | 1.302 ± 0.046 | 12.51 | 50.89% | 14.9 ± 6.13 | 21.9 ± 9.72 | 27.1 ± 13.5 | 30.7 ± 10.2 | 33.8 ± 12.1 | 31.0 ± 11.3 | antiviral effective rate (ER %) [4]: 75.35** %; Swelling percentage (%) [11, 20]: 35.8 ± 13.5 %; Swelling percentage (%) [11, 21]: 36.4 ± 10.2%; antiviral effective rate (ER %) [12]: 80.72** %; Body temperature ([13]; 30 min after administration): 41.06 ± 0.26 °C; antipyretic percentage (%) ([13]; 30 min after administration): −0.10 ± 0.11%; Body temperature ([13]; 60 min after administration): 40.86 ± 0.21 °C; antipyretic percentage (%) ([13]; 60 min after administration): −0.49 ± 0.10%; Body temperature ([13]; 90 min after administration): 40.74 ± 0.22 °C; antipyretic percentage (%) ([13]; 90 min after administration): −0.77 ± 0.22%; Body temperature ([13]; 120 min after administration): 40.65 ± 0.27 °C; antipyretic percentage (%) ([13]; 120 min after administration): −1.00 ± 0.18 %; Body temperature ([13]; 180 min after administration): 40.49 ± 0.23 °C; antipyretic percentage (%) ([13]; 180 min after administration): −1.39 ± 0.17 %; Body temperature ([13]; 240 min after administration): 40.30 ± 0.25 °C; antipyretic percentage (%) ([13]; 240 min after administration): −1.85 ± 0.15 %
2 | COc1ccc([C@H]2OCC3C2CO[C@H]3c2ccc(O[C@@H]3OC(CO)[C@@H](O)[C@H](O)C3O)c(OC)c2)cc1OC (stereo partly drawn) [phillyrin] | 85.00** % | 22.06 ± 1.120 | 31.90 | 86 | 22.15** % | 80.40** % | 75.14** % | 23.17 | 30.01 | 1.335 ± 0.062 | 16.10 | 1.280 ± 0.040 | 14.00 | 75.27** % | 12.9 ± 8.41 | 19.9 ± 9.55 | 21.8 ± 11.8 | 28.9 ± 14.0 | 30.8 ± 15.4 | 29.9 ± 11.1 | antiviral effective rate (ER %) ([4]; influenza virus 100TCID50, Vero, 72 h, drug g/L (Table 1-2): phillyrin 0.01, Phillygeninin 0.02, compositions A, B 0.01, Ribavirin 0.70, oseltamivir phosphate 0.30): 75.38** %; Swelling percentage (%) [11, 20]: 33.5 ± 10.0 %; Swelling percentage (%) [11, 21]: 32.2 ± 11.9 %; antiviral effective rate (ER %) [12]: 84.96** %; Body temperature ([13]; 30 min after administration): 40.83 ± 0.26 °C; antipyretic percentage (%) ([13]; 30 min after administration): −0.37 ± 0.15%; Body temperature ([13]; 60 min after administration): 40.58 ± 0.21 °C; antipyretic percentage (%) ([13]; 60 min after administration): −0.61 ± 0.12%; Body temperature ([13]; 90 min after administration): 40.43 ± 0.22 °C; antipyretic percentage (%) ([13]; 90 min after administration): −0.97 ± 0.27%; Body temperature ([13]; 120 min after administration): 40.37 ± 0.27 °C; antipyretic percentage (%) ([13]; 120 min after administration): −1.13 ± 0.14 %; Body temperature ([13]; 180 min after administration): 40.16 ± 0.23 °C; antipyretic percentage (%) ([13]; 180 min after administration): −1.65 ± 0.12 %; Body temperature ([13]; 240 min after administration): 39.92 ± 0.25 °C; antipyretic percentage (%) ([13]; 240 min after administration): −2.22 ± 0.11 %

From patent US10881679B2, “Application of a phillyrin/phillygeninin composition in preparing a medicine or health care product for alleviating or/and treating viral diseases, and medicine or health care product for treating viral diseases” (priority 2014, dated 2021)
